In EP3932395A1, “STABLE EMULSION CONTAINING AN ACTIVE PHARMACEUTICAL INGREDIENT BASED ON N(3-METHYL-2-OXO-2,3-DIHYDROBENZO[D]OXAZOL-5-YL)DODECANAMIDE, PRODUCTION AND USE” (Dr. August Wolff GmbH & Co. KG Arzneimittel, priority 2020, dated 2022):

Tests used:
[1] = Simultaneous Thermal Analysis (STA = TGA + DTA); format: physicochemical; settings: heated 10°C/min from 30°C to 300°C, nitrogen purge
Experimental: Simultaneous Thermal analysis (STA = TGA (Thermogravimetric Analysis) + DTA (Differential Thermal Analysis)) was performed in order to test the stability of N-(3 -methyl-2-oxo-2,3-dihydrobenzo[d]oxazol-5-yl)dodecanamide (hereinafter "the API") while heating. Approximately 10 mg of the sample was weighed into a ceramic crucible and placed into the chamber of a Perkin-Elmer STA 600 TGA/DTA analyzer at ambient temperature. The sample was then heated at a rate of 10°C/min from 30°C up to 300°C during which time the change in weight was monitored as well as DTA signal. The purge gas used was nitrogen at a flow rate of 20 cm^3/min.

[2] = Forced degradation studies; format: physicochemical
From the text: Solid samples and sample solutions of N-(3-methyl-2-oxo-2,3-dihydrobenzo[d]oxazol-5-yl)dodecanamide were exposed to stress agents for a defined period and influence of stress on the compound were studied (i.e. the degradation).
The evaluation was expressed as relative percent with respect to t=0 result of unstressed sample (mass balance, % of peak areas).
The stress conditions were adjusted in such way that the degradation varied in a range of approx. 1 to 5% generated impurities.
The following stress conditions were applied: acidic and basic hydrolysis, oxidizing agent, temperature and photolytic conditions.
Solid sample - daylight, laboratory condition (VIS) - exposure time 7 days Solid sample - UV 254 nm, laboratory condition (UV) - exposure time 6 days
Solid sample, 70°C - exposure time 6 days
Sample solution, 3% H2O2, laboratory condition - exposure time 24 h
Sample solution, 0.1M HCI, 50°C - exposure time 24 h
Sample solution, 0.01-0.05M NaOH, 25°C (1M NaOH, 50°C, 1 h) - exposure time 45 min

[3] = Forced degradation studies; format: physicochemical; settings: 0.05M NaOH, 5 min, room temperature
[4] = Particle size distribution of the API by laser diffraction, pre and post jet-mill micronization; format: physicochemical
From the text: A Sturtevant qualification micronizer was used to reduce the particle size of the API. The mill was operated with tangential flow (i.e. the nitrogen supply and drug are fed in the same direction in the milling chamber). The material of API as received was fed into the jet mill using a Venturi feed system, where air was used to draw the feed material into the milling chamber. A product filter bag was affixed to the outlet of the mill, through which the exhausts and the milled drug substance collects. The milling conditions were set as follows: Grind gas: Dry nitrogen gas; Grind pressure: 80 psi; Feed pressure: 80 psi; Room conditions: Ambient.
A representative sample, dispersed at an adequate concentration in a suitable liquid, is passed through the beam of a monochromatic light source, preferably from a laser. The light scattered by the particles at various angles is measured by a multi-element detector, and numerical values relating to the scattering pattern are then recorded for subsequent analysis. These numerical scattering values are then transformed, using an appropriate optical model and mathematical procedure, to yield the proportion of total volume to a discrete number of size classes forming a volumetric particle size distribution (e.g., dso describes a particle diameter corresponding to 50% of the cumulative undersize distribution, i.e. 50% of the particles have a diameter that is smaller than a threshold value).
The Particle Size Distribution was determined using Malvern Mastersizer MicroPlus particle size analyzer (Malvern Instruments, UK) and 1% (v/v) Tween 80 in deionized water was used as dispersant for this experiment. The equipment was turned on and the following conditions were set: Analysis Model: Polydisperse; Presentation Code: Frauenhofer (5$$D); Stirring speed: 10 o'clock dial position.
The equipment was left to warm up for about 1 hour and approximately 100 mL of the dispersant was added to the sample dispersion unit. Backgrounds were first measured using the dispersant. A fresh sample was prepared by adding -20 to 50 mg API into ∼2 to 3 mL of the dispersant and this was sonicated for ∼5 minutes. The sample was added dropwise into the sample dispersion unit while stirring the dispersant until a suitable obscuration value was achieved and the particle size distribution could be measured. A minimum of three measurements were made for the pre and post micronized samples.
Alternatively, the Malvern Mastersizer 2000 can be used for the determination of Particle Size Distribution. In this case water is used as dispersant.
For upscaling purposes, the micronization process was transferred to a jet mill AS200 (Hosokawa Alpine, Germany) on which the following experiments were performed. Dry nitrogen and air were used as grind gas in order to determine the gas which is more suitable for the micronization process.

[5] = test system: Human lymphoma U937 cells; assay: Cellular uptake of [3H]-AEA; format: cell-based; settings: U-937, 100 nM AEA, 15 min pre-incubation, 15 min at 37°C
Experimental: Human lymphoma U937 cells were grown in RPMI 1640 medium (Invitrogen, Basel, Switzerland) supplemented with 10% fetal bovine serum, […] fungizone (amphotericin B), 100 units/mL penicillin, 100 µg/mL streptomycin, and 2 mM L-glutamine (all from Invitrogen) and selected for the cellular AEA uptake assay. 2.5 x 10^6 cells were collected and suspended in 250 µL of RPMI 1640 medium (Invitrogen, Basel, Switzerland) at 37°C using glass silanized vials. Cells were pre-incubated 15 min at 37°C in presence of the test compound in a concentration range of 10^-11 - 10^-5 M or in presence of the same amount (5 µL) of vehicle control (DMSO). Then a mixture of 0.5 nM [^3H]-AEA (60 Ci/mmol) (American Radiolabeled Chemicals, Inc., San Louis, MO, US) and 99.5 nM of nonradioactive AEA (Tocris Cookson Ltd., Bristol, UK) resulting in a final concentration of 100 nM AEA was added and samples were incubated at 37°C for another 15 minutes. The reaction was stopped by rapid filtration over UniFilter®-96 GF/C (Perkin Elmer, Boston MA, US) pre-soaked with PBS 0.25% BSA (w/v). […] Radioactivity was measured using a Perkin Elmer 1450 Microbeta TRILUX liquid scintillation counter. Results were expressed as % of AEA uptake versus cells treated with solvent and the EC50 and IC50 values were calculated from the sigmoidal curves, which were generated using the GraphPad Prism 5.0 (GraphPad Software, San Diego, CA, US).

[6] = Solubility screening with standard cream-base excipients; format: physicochemical; settings: Ph.Eur. terms, 15°C to 25°C
Experimental: A solubility screening with standard excipients for preparation of a cream base (glycerol monostearate 60, cetyl alcohol, MCTs, paraffin, macrogol-20-glycerol monostearate, propylene glycol and water) was performed.
The following procedure was used to prepare the samples for solubility screen: • 1. Weigh out the API • 2. Add individual excipient (both solid and liquid excipients) • 3. Slurry either by roller at RT if liquid excipient, or by shaker at 60°C if the excipient was solid • 4. Shake or sonicate occasionally • 5. Check solubility visually, if API not dissolved, add more excipient • 6. Repeat steps 3 to 5 • 7. Samples prepared in steps 1 through 6 were centrifuged and removed from the top for HPLC. • 8. Dilute each sample to 1 mL. Only samples fully dissolved were checked by HPLC.
In the general notice of Ph.Eur. in statements of solubility the terms used have the following significance, referred to at a temperature between 15°C and 25°C.

[7] = first batch (5 g), post micronization, mean ± SD
[8] = first batch (5 g), pre micronization, mean ± SD
[9] = second batch (200 g), post micronization, mean ± SD
[10] = second batch (200 g), pre micronization, mean ± SD

temperature up to which the material remained stable [1]: ~190 °C
degradation under basic hydrolysis ([2]; 1M NaOH, 50°C, after 1 hour): completely degraded
time for which the stressed sample was stable ([2]; 3% H2O2 solution): at least 24 hours
stability conclusion ([2]; acidic condition): stable
stability conclusion ([2]; alkaline conditions): not stable
stability conclusion ([2]; oxidizing condition (H2O2)): stable
stability conclusion ([2]; photolytic conditions (VIS, UV)): photo stable
mass balance ([2]; sample solution, 0.1M HCl, 50°C, 24 h): 101.2%
mass balance ([2]; sample solution, 3% H2O2, 24 h): 98%
mass balance ([2]; solid sample, 70°C, 6 days): 102.6%
mass balance ([2]; solid sample, UV 254 nm, 6 days, relative to t=0 unstressed sample): 102.4%
mass balance ([2]; solid sample, daylight (VIS), 7 days, relative to t=0 unstressed sample): 100.2%
stability conclusion ([2]; temperature conditions (70°C)): thermo stable
purity of the measured sample after basic hydrolysis [3]: 89.50 % A
d90 ([4]; 150 g batch, jet mill AS200, normal air as grind gas, post micronization): 7.43 µm
d90 ([4]; 200 g batch, jet mill AS200, dry nitrogen as grind gas, post micronization): 8.92 µm
d10 [4, 7]: 1.11±0.05 µm
d50 [4, 7]: 2.97±0.05 µm
d90 [4, 7]: 6.76±0.36 µm
d10 [4, 8]: 7.53±1.55 µm
d50 [4, 8]: 33.71±18.61 µm
d90 [4, 8]: 106.06±56.69 µm
d90 ([4]; jet mill AS200, batch size 0.913 kg): 4.8 µm
d90 ([4]; jet mill AS200, batch size 1.035 kg): 5.5 µm
d90 ([4]; jet mill AS200, batch size 1.073 kg): 4.4 µm
d90 ([4]; jet mill AS200, batch size 3.60 kg): 7.6 µm
d10 [4, 9]: 1.96±0.11 µm
d50 [4, 9]: 4.98±0.10 µm
d90 [4, 9]: 10.29±0.44 µm
d10 [4, 10]: 26.90±3.65 µm
d50 [4, 10]: 69.71±9.95 µm
d90 [4, 10]: 127.67±18.59 µm
EC50 [5]: 4 nM
solubility ([6]; in water): Practically insoluble (more than 10,000)
Structure (SMILES): CCCCCCCCCCCC(=O)Nc1ccc2oc(=O)n(C)c2c1 [API, N-(3-methyl-2-oxo-2,3-dihydrobenzo[d]oxazol-5-yl)dodecanamide]
solubility ([6]; in MCTs): Very slightly soluble (from 1,000 to 10,000)
solubility ([6]; in propylene glycol): Very slightly soluble (from 1,000 to 10,000)
